As a reminder, the pKi is the Ki on a negative log10 scale, so that one unit is a factor of ten.

pKi: −log10 of the molar value. Where two headings read alike, the source gives them in different places.

Results on four compounds are retold here after patent US9657002B2, “Oxindole derivatives carrying an oxetane substituent and use thereof for treating vassopressin-related diseases” (AbbVie Deutschland GmbH & Co. KG, priority 2013, dated 2017).

For test [1], the target named is human vasopressin V1a receptor (Homo sapiens, UniProt P37288). The test can be described thus: Vasopressin V1a receptor binding assay. To be noted: selectivity quotient, human V1a vs human V1b.
Sequence of human vasopressin V1a receptor (P37288 whole entry): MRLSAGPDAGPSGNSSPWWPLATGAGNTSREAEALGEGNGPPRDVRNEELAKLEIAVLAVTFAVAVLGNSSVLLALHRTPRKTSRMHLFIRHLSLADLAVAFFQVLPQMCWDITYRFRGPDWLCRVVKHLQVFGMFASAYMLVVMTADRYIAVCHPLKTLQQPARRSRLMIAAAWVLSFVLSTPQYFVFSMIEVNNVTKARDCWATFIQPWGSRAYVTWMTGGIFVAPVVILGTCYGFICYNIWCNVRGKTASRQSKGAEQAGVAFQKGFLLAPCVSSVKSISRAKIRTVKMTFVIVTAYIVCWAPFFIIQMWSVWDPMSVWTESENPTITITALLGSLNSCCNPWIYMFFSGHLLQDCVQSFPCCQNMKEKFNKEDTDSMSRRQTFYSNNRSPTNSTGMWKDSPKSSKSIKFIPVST
For test [2], the target named is T1, human vasopressin V1b receptor (Homo sapiens, UniProt P47901).
T1 sequence (P47901 1-424): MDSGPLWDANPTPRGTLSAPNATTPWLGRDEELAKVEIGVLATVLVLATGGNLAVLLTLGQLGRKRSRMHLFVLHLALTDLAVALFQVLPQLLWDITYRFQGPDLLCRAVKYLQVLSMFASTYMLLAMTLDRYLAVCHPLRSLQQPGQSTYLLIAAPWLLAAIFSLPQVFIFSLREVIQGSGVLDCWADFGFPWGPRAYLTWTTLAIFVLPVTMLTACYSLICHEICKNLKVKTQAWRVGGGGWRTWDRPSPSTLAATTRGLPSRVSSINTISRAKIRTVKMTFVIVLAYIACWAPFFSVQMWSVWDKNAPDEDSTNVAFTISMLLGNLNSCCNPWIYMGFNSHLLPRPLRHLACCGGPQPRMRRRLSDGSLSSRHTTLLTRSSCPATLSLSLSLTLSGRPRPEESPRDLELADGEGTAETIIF
To be noted: read-out: Ki(h-V1b)*, CHO-K1 membranes, 3H-AVP displacement.

For the next test, the system named is Wistar rats. As to the kind of experiment: Vogel conflict test. To be noted: i.p. 30 minutes before the test, at 10 and 30 mg/kg. In kind it is in vivo. The text has this: (§1) Male NMRI mice (Janvier, Le Genest-St-Isle, France) were used for stress-induced Adrenocorticotropic hormone (ACTH) release. Adult male Wistar rats (175-220 g body weight upon arrival) were obtained from Harlan Inc. (Indianapolis, Ind.). For the forced swim test, male Sprague Dawley rats (100-120 g body weight upon arrival) were obtained from Janvier (Le Genest-St-Isle, France). The animals were acclimatized to the animal facilities for at least one week before the start of the experimental procedures. Animals were maintained in a controlled environment on a 12:12 hour light dark schedule (lights on 06:00 h for rats in Vogel conflict test and 05:30 h for rats in forced swim test). Experimental procedures took place during the illuminated phase of the light/dark cycle. Food and water were available ad libitum, except for the Vogel conflict test, where the animals were submitted to a water deprivation regimen as described below. […]
The Vogel conflict test is a well-validated animal model to detect compounds with anxiolytic properties. […] The number of punished responses was automatically recorded for each rat during 5 min of testing. […]

Test [3] has as its target T1, human vasopressin V1b receptor. As to the kind of experiment: biochemical.
In the next test the test system is Sprague Dawley rats. As to the kind of experiment: Forced swim test. Format: in vivo. To be noted: i.p. 24, 4 and 0.5 hours before testing, at 10 mg/kg.
Text: as §1
The forced swim test consisted of a pre-test and a test swim. […] Test swims were recorded on videotape and subsequently used for analysis. […]

Test [4] relates to stress-induced ACTH release. As to the kind of experiment: Stress-induced ACTH release. Format: in vivo, NMRI mice. As to conditions: mice, restraint stress, i.p. 1 hour before; at 10 and 30 mg/kg.
Text: as §1
The blood was collected in 1.3 mL blood sampling vials containing potassium EDTA (Sarstedt, Nümbrecht, Germany) and […] aprotinin solution (saline solution, 3-7 TIU [trypsin inhibitor units]/mg protein; Sigma-Aldrich, Germany). […] ACTH concentrations were measured by an ELISA (enzyme-linked immuno sorbent assay) for ACTH (IBL Hamburg, Germany). […]

`COc1ccc(S(=O)(=O)N2C(=O)[C@@](NC(=O)N3CCN(C4CCN(C5COC5C)CC4)CC3)(c3cccnc3OC)c3cc(C#N)ccc32)c(OC)c1.O=C(O)C(F)(F)F.O=C(O)C(F)(F)F` (stereo partly drawn) [Example 53, N—((S)-5-cyano-1-((2,4-dimethoxyphenyl)sulfonyl)-3-(2-methoxypyridin-3-yl)-2-oxoindolin-3-yl)-4-(1-(2-methyloxetan-3-yl)piperidin-4-yl)piperazine-1-carboxamide, 2 trifluoroacetic acid]: the “Ki(h-V1a)/Ki(h-V1b)” value in test [1] was “++ (25-75)”. The pKi in test [2] was 8.00 to 9.00.

In the case of “(S)—N-(5-cyano-1-((2,4-dimethoxyphenyl)sulfonyl)-3-(2-ethoxypyridin-3-yl)-2-oxoindolin-3-yl)-4-(4-(oxetan-3-yl)piperazin-1-yl)piperidine-1-carboxamide [Example 2]”, the “Ki(h-V1a)/Ki(h-V1b)” value in test [1] is reported as “++ (25-75)”. Further, in test [2], the pKi was 8.00 to 9.00.

Take `COc1ccc(S(=O)(=O)N2C(=O)[C@@](NC(=O)N3CCN(C4CCN(C5(C)COC5)CC4)CC3)(c3cccnc3OC)c3cc(C#N)ccc32)c(OC)c1.O=C(O)C(F)(F)F.O=C(O)C(F)(F)F` [Example 52, (S)—N-(5-cyano-1-((2,4-dimethoxyphenyl)sulfonyl)-3-(2-methoxypyridin-3-yl)-2-oxoindolin-3-yl)-4-(1-(3-methyloxetan-3-yl)piperidin-4-yl)piperazine-1-carboxamide, 2 trifluoroacetic acid]: the “Ki(h-V1a)/Ki(h-V1b)” value in test [1] was “+++ (>75)”. Further, the pKi in test [2] was 8.00 to 9.00.

For `COc1ccc(S(=O)(=O)N2C(=O)[C@@](NC(=O)N3CCN(C4CCN(C5COC5)CC4)CC3)(c3cccnc3OC)c3cc(C#N)ccc32)c(OC)c1` [Example 21, N-[(3S)-5-cyano-1-(2,4-dimethoxyphenyl)sulfonyl-3-(2-methoxy-3-pyridyl)-2-oxo-indolin-3-yl]-4-[1-(oxetan-3-yl)-4-piperidyl]piperazine-1-carboxamide], the “Ki(h-V1a)/Ki(h-V1b)” value in test [1] is recorded as “+++ (>75)”. Moreover, in the test on Wistar rats, the “punished responses in Vogel conflict (anxiolytic-like efficacy)” value is “significant effect”. This compound also gave a pKi in test [3] of 7.00 to 8.00. In addition, in the test on Sprague Dawley rats, the “latency to immobility in the forced swim test (antidepressant-like effect)” value is “significant antidepressant-like effect”. In test [4], the “stress-induced ACTH release” value was “significantly blocked the stress response”.
